Assays:
[1] = molecular target: T1, Oxysterols receptor LXR-beta (Homo sapiens, UniProt P55055); assay: Agonist activity at LXRbeta-LBD expressed in HEK293 cells assessed as Gal4-DBD interaction by cellular mammalian one hybrid assay; format: functional, cell-based
T1 sequence (P55055 whole entry): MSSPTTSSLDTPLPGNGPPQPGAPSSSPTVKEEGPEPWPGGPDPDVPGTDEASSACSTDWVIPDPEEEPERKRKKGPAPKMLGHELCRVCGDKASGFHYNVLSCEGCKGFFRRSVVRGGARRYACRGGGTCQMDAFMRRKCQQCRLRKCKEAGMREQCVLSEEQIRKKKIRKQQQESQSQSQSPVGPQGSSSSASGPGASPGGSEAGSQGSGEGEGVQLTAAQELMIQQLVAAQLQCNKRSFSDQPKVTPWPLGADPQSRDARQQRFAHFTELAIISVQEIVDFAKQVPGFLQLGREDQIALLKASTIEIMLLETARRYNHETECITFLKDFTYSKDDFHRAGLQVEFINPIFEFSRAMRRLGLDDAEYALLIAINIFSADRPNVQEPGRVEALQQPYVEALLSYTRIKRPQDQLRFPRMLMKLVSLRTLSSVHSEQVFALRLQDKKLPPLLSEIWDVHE

Bile acid receptor = molecular target: T2, Bile acid receptor (Homo sapiens, UniProt Q96RI1); assay: Agonist activity at human GST-fused FXR LBD assessed as cofactor peptide interaction with receptor ligand binding domain by FRET assay
T2 sequence (Q96RI1 whole entry): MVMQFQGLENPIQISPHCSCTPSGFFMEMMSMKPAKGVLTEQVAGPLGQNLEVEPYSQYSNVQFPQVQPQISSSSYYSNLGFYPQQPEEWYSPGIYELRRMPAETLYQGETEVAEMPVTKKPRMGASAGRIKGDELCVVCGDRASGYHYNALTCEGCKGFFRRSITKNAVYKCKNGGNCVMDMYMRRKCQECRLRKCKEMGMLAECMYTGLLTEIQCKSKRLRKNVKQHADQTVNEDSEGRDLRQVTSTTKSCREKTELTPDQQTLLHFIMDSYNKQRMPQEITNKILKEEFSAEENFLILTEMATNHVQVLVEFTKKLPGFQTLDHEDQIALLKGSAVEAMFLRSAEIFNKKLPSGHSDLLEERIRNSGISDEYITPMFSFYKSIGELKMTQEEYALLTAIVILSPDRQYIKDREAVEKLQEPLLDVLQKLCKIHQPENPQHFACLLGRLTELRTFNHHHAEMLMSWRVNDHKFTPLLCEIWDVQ

[2] = molecular target: T3, Oxysterols receptor LXR-alpha (Homo sapiens) (UniProt Q13133); assay: Agonist activity at LXRalpha-LBD expressed in HEK293 cells assessed as Gal4-DBD interaction by cellular mammalian one hybrid assay relative to T0901317; format: functional, cell-based
T3 sequence (whole entry): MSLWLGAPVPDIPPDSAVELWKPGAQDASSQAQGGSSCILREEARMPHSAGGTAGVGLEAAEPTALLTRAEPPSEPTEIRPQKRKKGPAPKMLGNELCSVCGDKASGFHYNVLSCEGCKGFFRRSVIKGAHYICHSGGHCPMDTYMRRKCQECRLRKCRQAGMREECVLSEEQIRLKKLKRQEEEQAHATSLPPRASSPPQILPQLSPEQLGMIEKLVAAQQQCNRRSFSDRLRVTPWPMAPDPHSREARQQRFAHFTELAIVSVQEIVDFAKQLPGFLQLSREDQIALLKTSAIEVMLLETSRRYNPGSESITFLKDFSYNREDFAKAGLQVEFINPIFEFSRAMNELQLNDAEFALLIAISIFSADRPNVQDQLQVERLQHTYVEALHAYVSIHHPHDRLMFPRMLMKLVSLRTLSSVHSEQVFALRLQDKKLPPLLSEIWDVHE

[3] = molecular target: T4, Bile acid receptor (Homo sapiens) (UniProt Q96RI1); assay: Agonist activity at human full length FXR transfected in HEK293 cells coexpressing pTRexDest/pGL2promotor assessed as luciferase activity by direct reporter cellular assay relative to GW-4064; format: functional, cell-based
T4 sequence (whole entry): T2 sequence (Q96RI1 whole entry)

[4] = molecular target: T5, Retinoic acid receptor gamma (Homo sapiens) (UniProt P13631); assay: Agonist activity at RARgamma-LBD expressed in HEK293 cells assessed as Gal4-DBD interaction by cellular mammalian one hybrid assay relative to relative to retinoic acid; format: functional, cell-based
T5 sequence (whole entry): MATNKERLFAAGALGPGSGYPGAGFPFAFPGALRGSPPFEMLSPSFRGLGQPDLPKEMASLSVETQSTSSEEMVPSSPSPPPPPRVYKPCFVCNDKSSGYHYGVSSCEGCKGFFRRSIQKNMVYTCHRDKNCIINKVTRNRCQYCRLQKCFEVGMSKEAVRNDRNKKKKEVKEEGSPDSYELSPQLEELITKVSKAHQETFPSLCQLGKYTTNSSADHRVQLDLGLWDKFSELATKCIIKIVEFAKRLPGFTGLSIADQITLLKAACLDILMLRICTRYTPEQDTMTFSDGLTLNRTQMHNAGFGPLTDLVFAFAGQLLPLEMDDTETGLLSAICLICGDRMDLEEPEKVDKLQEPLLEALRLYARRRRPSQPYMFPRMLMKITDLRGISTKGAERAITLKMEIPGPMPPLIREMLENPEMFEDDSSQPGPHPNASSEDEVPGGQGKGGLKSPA

[5] = molecular target: T6, Retinoic acid receptor alpha (Homo sapiens) (UniProt P10276); assay: Agonist activity at RARalpha-LBD expressed in HEK293 cells assessed as Gal4-DBD interaction by cellular mammalian one hybrid assay relative to retinoic acid; format: functional, cell-based
T6 sequence (whole entry): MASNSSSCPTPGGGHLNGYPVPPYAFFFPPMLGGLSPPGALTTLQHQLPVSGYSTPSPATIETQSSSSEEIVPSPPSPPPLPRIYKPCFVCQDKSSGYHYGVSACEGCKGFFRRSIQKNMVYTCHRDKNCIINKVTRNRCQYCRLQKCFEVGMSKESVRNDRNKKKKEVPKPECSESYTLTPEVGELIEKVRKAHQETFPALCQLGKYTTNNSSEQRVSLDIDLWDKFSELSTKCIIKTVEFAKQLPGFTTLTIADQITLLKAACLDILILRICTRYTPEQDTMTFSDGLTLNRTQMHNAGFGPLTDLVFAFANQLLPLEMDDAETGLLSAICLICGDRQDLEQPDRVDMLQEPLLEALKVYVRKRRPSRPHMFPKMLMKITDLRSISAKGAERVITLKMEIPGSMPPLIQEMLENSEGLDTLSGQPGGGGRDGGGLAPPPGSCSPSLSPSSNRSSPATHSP

Row | EC50 [1] [nM] | EC50 (Bile acid receptor) [nM] | Efficacy [2] [%] | Efficacy [3] [%] | Efficacy [4] [%] | Efficacy [5] [%] | Compound
1 | > 10000 | 12 | 0 | 60 | 0 | 0 | CN(Cc1ccc(C(=O)O)cc1)c1ccc(OCc2c(-c3c(Cl)cccc3Cl)noc2C2CC2)nc1C(F)(F)F
2 | > 10000 | 22 | 0 | 57 | 0 | 0 | CC(C)c1onc(-c2c(Cl)cccc2Cl)c1COc1ccc(N(C)Cc2ccc(C(=O)O)cc2)c(C(F)(F)F)n1
3 | > 10000 | 3 | 0 | 43 | 0 | 0 | CN(Cc1cccc(C(=O)O)c1)c1ccc(OCc2c(-c3c(Cl)cccc3Cl)noc2C2CC2)nc1C(F)(F)F

Reference: ChEMBL document CHEMBL1208782, “Synthesis and pharmacological validation of a novel series of non-steroidal FXR agonists” (Bioorg Med Chem Lett, 2010)
